Test results taken from the NIST ThermoML archive (doi:10.1021/je049930e).

Test: wn = mass fraction of the nth substance listed
Details: Liquid, Vibrating tube method

CC(=O)c1ccccc1 [acetophenone] + CCCCCCCCO
mass density [kg/m3]
Details | 100 kPa | 10000 kPa | 15000 kPa | 20000 kPa | 25000 kPa | 30000 kPa | 35000 kPa | 40000 kPa | 45000 kPa | 50000 kPa
298.15 K, w2 = 0.1075 | 996 | 1001.7 | 1004.5 | 1007.2 | 1009.8 | 1012.3 | 1014.9 | 1017.3 | 1019.7 | 1022.1
298.15 K, w2 = 0.2132 | 971.2 | 977 | 979.8 | 982.5 | 985.2 | 987.7 | 990.3 | 992.8 | 995.1 | 997.5
298.15 K, w2 = 0.3172 | 947.9 | 953.8 | 956.6 | 959.4 | 962 | 964.7 | 967.2 | 969.7 | 972.2 | 974.6
298.15 K, w2 = 0.4195 | 926.2 | 932.2 | 935.1 | 937.9 | 940.6 | 943.2 | 945.8 | 948.3 | 950.7 | 953.2
298.15 K, w2 = 0.5201 | 905.9 | 911.9 | 914.9 | 917.6 | 920.3 | 923 | 925.6 | 928.1 | 930.6 | 933
298.15 K, w2 = 0.6192 | 886.6 | 892.7 | 895.6 | 898.4 | 901.2 | 903.8 | 906.4 | 909 | 911.4 | 913.8
298.15 K, w2 = 0.7166 | 868.6 | 874.7 | 877.6 | 880.4 | 883.2 | 885.9 | 888.5 | 891 | 893.5 | 895.9
298.15 K, w2 = 0.8126 | 851.8 | 857.9 | 860.9 | 863.7 | 866.5 | 869.2 | 871.8 | 874.2 | 876.8 | 879.2
298.15 K, w2 = 0.907 | 836 | 842.1 | 845.1 | 848 | 850.7 | 853.4 | 855.9 | 858.5 | 861 | 863.3
318.15 K, w2 = 0.1075 | 978.9 | 985.3 | 988.3 | 991.3 | 994.1 | 997 | 999.5 | 1002.2 | 1004.8 | 1007.3
318.15 K, w2 = 0.2132 | 954.5 | 960.9 | 964 | 967 | 969.9 | 972.7 | 975.4 | 978 | 980.7 | 983.2
318.15 K, w2 = 0.3172 | 931.3 | 937.8 | 940.9 | 943.9 | 946.9 | 949.7 | 952.4 | 955.1 | 957.7 | 960.3
318.15 K, w2 = 0.4195 | 910 | 916.6 | 919.7 | 922.8 | 925.7 | 928.6 | 931.4 | 934 | 936.8 | 939.3
318.15 K, w2 = 0.5201 | 890 | 896.7 | 899.8 | 902.9 | 905.9 | 908.7 | 911.5 | 914.2 | 916.9 | 919.5
318.15 K, w2 = 0.6192 | 871.1 | 877.8 | 881.1 | 884.1 | 887.1 | 890 | 892.7 | 895.4 | 898.1 | 900.7
318.15 K, w2 = 0.7166 | 853.4 | 860.2 | 863.3 | 866.4 | 869.5 | 872.4 | 875.2 | 877.9 | 880.5 | 883.1
318.15 K, w2 = 0.8126 | 837 | 843.9 | 847 | 850.2 | 853.2 | 856 | 858.9 | 861.6 | 864.3 | 866.8
318.15 K, w2 = 0.907 | 821.6 | 828.3 | 831.6 | 834.7 | 837.7 | 840.6 | 843.4 | 846.1 | 848.8 | 851.3
348.15 K, w2 = 0.1075 | 952.5 | 959.7 | 963.2 | 966.6 | 969.9 | 973.1 | 976.1 | 979.2 | 982 | 984.8
348.15 K, w2 = 0.2132 | 928.4 | 935.9 | 939.4 | 942.8 | 946.1 | 949.2 | 952.3 | 955.3 | 958.2 | 961
348.15 K, w2 = 0.3172 | 905.7 | 913.1 | 916.7 | 920.1 | 923.5 | 926.7 | 929.8 | 932.9 | 935.9 | 938.6
348.15 K, w2 = 0.4195 | 884.7 | 892.4 | 896 | 899.5 | 902.9 | 906.2 | 909.3 | 912.3 | 915.3 | 918.2
348.15 K, w2 = 0.5201 | 865.1 | 872.8 | 876.5 | 880 | 883.4 | 886.6 | 889.6 | 892.8 | 895.9 | 898.7
348.15 K, w2 = 0.6192 | 846.9 | 854.6 | 858.3 | 861.8 | 865.3 | 868.5 | 871.7 | 874.8 | 877.8 | 880.7
348.15 K, w2 = 0.7166 | 829.6 | 837.4 | 841.1 | 844.6 | 848 | 851.3 | 854.5 | 857.6 | 860.5 | 863.4
348.15 K, w2 = 0.8126 | 813.7 | 821.5 | 825.2 | 828.7 | 832.1 | 835.4 | 838.6 | 841.7 | 844.6 | 847.5
348.15 K, w2 = 0.907 | 798.4 | 806.4 | 810.2 | 813.8 | 817.2 | 820.4 | 823.6 | 826.7 | 829.7 | 832.5
